Data: article PMC8272121, “Synthesis and Evaluation of Chalcone-Quinoline Based Molecular Hybrids as Potential Anti-Malarial Agents” (Molecules, 2021)
≈ marks a conversion by molar mass, not a printed value.

What was measured:
[1] = test system: P. falciparum NF54 (drug-sensitive strain); assay: In vitro antiplasmodial assay (parasite lactate dehydrogenase), chloroquine-sensitive NF54 strain; format: cell-based, Plasmodium falciparum; settings: Plasmodium falciparum; sensitive (NF54) strain of P. falciparum; pLDH assay, 48 h; mean of ≥2 independent experiments; read-out: PfNF54 IC50
Protocol: All the synthesized molecular hybrids (6–27) were evaluated for in vitro antiplasmodial activity against the drug-sensitive strain (NF54) of P. falciparum and for cytotoxicity against the Chinese Hamster Ovary (CHO) mammalian cell line using emetine as a reference drug. Aqueous solubility was determined at pH 6.5 (Table 2).
In-vitro anti-plasmodium assay. Compounds were tested using parasite lactate dehydrogenase assay as a marker for parasite survival. The respective stock solutions of CQ diphosphate and test compounds were prepared by dissolving 2 mg/mL in distilled water (for CQ) and 100% DMSO for test compounds. The solutions were then stored at −20 °C, with further dilutions prepared on the day of the experiment. The cultures were synchronized in the ring stage as described previously using 15 mL of 5% (w/v) d-sorbitol in water. Synchronous cultures of PfNF54 (CQS) in the late trophozoite stage were prepared to 2% parasitemia and 2% hematocrit. […] Following incubation, 100 μL of MalStat reagent and 15 μL of resuspended culture were combined, followed by addition of 25 μL of nitro blue tetrazolium chloride (NBT). The plates were kept in the dark for about 10 min to fully develop, and absorbance was measured at 620 nm on a microplate reader. Raw data were exported to Microsoft Excel for dose-response analysis.

[2] = test system: P. falciparum K1 (multi-drug resistant strain); assay: In vitro antiplasmodial activity against multi-drug resistant K1 strain; format: cell-based; settings: Plasmodium falciparum; multi-drug resistant K1 strain of P. falciparum; read-out: PfK1 IC50
[3] = test system: Chinese Hamster Ovary (CHO) mammalian cell line; assay: Cytotoxicity MTT assay on CHO cells; format: cell-based; settings: for IC50: Cricetulus griseus, CHO, Chinese hamster ovarian cell line, MTT, 48 h; for SI (selectivity index): SI = IC50 (CHO)/IC50 (PfNF54)
Protocol: All the synthesized molecular hybrids (6–27) were evaluated for in vitro antiplasmodial activity against the drug-sensitive strain (NF54) of P. falciparum and for cytotoxicity against the Chinese Hamster Ovary (CHO) mammalian cell line using emetine as a reference drug. Aqueous solubility was determined at pH 6.5 (Table 2). Cytotoxicity assay. […] The reference standard, emetine, was prepared to 2 mg/mL in distilled water while stock solutions of test compounds were prepared to 20 mg/mL in 100% DMSO with the highest concentration of solvent to which the cells were exposed having no measurable effect on the cell viability. The initial concentration of the compounds and control was 100 μg/mL, which was serially diluted in complete medium with 10-fold dilutions to give six concentrations, the lowest being 0.001 μg/mL. Plates were incubated for 48 h with 100 μL of drug and 100 μL of cell suspension in each well and developed afterward by adding 25 μL of sterile MTT (Thermo Fisher Scientific) to each well, followed by 4 h of incubation in the dark. The plates were then centrifuged; the medium was aspirated, and 100 μL of DMSO was added to dissolve crystals before reading the absorbance at 540 nm. Data were analyzed, and the sigmoidal dose-response was derived using GraphPad Prism v 4.0 software (La Jolla). All experiments were performed for at least three independent biological repeats, each with technical triplicates.

[4] = Aqueous solubility, miniaturized shake flask method (HPLC-DAD); format: physicochemical; settings: aqueous solution, aqueous buffer, thermodynamic from solid, pH 6.5, shake flask 20 h, 25 °C
Protocol: All the synthesized molecular hybrids (6-27) were evaluated for in vitro antiplasmodial activity against the drug-sensitive strain (NF54) of P. falciparum and for cytotoxicity against the Chinese Hamster Ovary (CHO) mammalian cell line using emetine as a reference drug. Aqueous solubility was determined at pH 6.5 (Table 2). Aqueous solubility. Water solubility was analyzed using a miniaturized shake flask method. Ten millimolar stock solutions of each of the compounds were used to prepare calibration standards (10-220 μM) in DMSO. The same 10 mM stock solutions were accurately dispensed in duplicate into 96-well plates, and the DMSO, dried down ([…],90 min, 37 °C). Thereafter, the samples were reconstituted (200 μM) in an aqueous solution and shaken (20 h, 25 °C). The solutions were analyzed by means of HPLC-DAD (Agilent1200 Rapid Resolution HPLC with a diode array detector). Best fit calibration curves were constructed using the calibration standards, which were used to determine the aqueous samples' solubility.

Compound	IC50 [1] [µM]	IC50 [2] [µM]	melting point [°C]	solubility at 20 h [4] [µM]	IC50 [3] [µM]	SI (selectivity index) [3]
O=C(/C=C/c1ccccc1Br)c1ccc(S(=O)(=O)NCCCNc2ccnc3cc(Cl)ccc23)cc1 [Compound 8, (E)-4-(3-(2-bromophenyl)acryloyl)-N-(3-((7-chloroquinolin-4-yl)amino)propyl)benzenesulfonamide]	0.1	2.97	–	–	43.2	435
O=C(/C=C/c1ccc(Cl)cc1)c1ccc(S(=O)(=O)NCCCNc2ccnc3cc(Cl)ccc23)cc1 [Compound 11, (E)-4-(3-(4-chlorophenyl)acryloyl)-N-(3-((7-chloroquinolin-4-yl)amino)propyl)benzenesulfonamide]	0.1	6	–	–	41.2	416.2
COc1ccc(/C=C/C(=O)c2ccc(S(=O)(=O)NCCCNc3ccnc4cc(Cl)ccc34)cc2)cc1 [Compound 12, (E)-N-(3-((7-chloroquinolin-4-yl)amino)propyl)-4-(3-(4-methoxyphenyl)acryloyl)benzenesulfonamide]	0.11	0.59	221 to 223	–	43.3	393.6

Continued by falling IC50 [1], values first:

IC50 [1] [µM]	IC50 [2] [µM]	melting point [°C]	solubility at 20 h [4] [µM]	Compound	IC50 [3] [µM]	SI (selectivity index) [3]
0.69	–	222 to 224	200 (≈ 110 µg/mL)	O=C(/C=C/c1ccc2c(c1)OCO2)c1ccc(S(=O)(=O)NCCCNc2ccnc3cc(Cl)ccc23)cc1 [Compound 26, (E)-4-(3-(benzo[d][1,3]dioxol-5-yl)acryloyl)-N-(3-((7-chloroquinolin-4-yl)amino)propyl)benzenesulfonamide]	34.1	49.5
0.57	–	222 to 224	< 5	O=C(/C=C/c1ccc(F)cc1)c1ccc(S(=O)(=O)NCCNc2ccnc3cc(Cl)ccc23)cc1 [Compound 24, (E)-N-(2-((7-chloroquinolin-4-yl)amino)ethyl)-4-(3-(4-fluorophenyl)acryloyl)benzenesulfonamide]	14.5	25.5
0.37	–	209 to 211	19 (≈ 10 µg/mL)	O=C(/C=C/c1ccccc1Cl)c1ccc(S(=O)(=O)NCCNc2ccnc3cc(Cl)ccc23)cc1 [Compound 25, (E)-4-(3-(2-chlorophenyl)acryloyl)-N-(2-((7-chloroquinolin-4-yl)amino)ethyl)benzenesulfonamide]	35.4	95.7
